The text below walks through data of publication PMC10368370, “Development of o-aminobenzamide salt derivatives for improving water solubility and anti-undifferentiated gastric cancer” (Frontiers in Pharmacology, 2023).

Like-named read-outs stand apart in the source and are kept apart here.

One data set has as its system HGC-27 xenograft. The experiment in a line: HGC-27 tumor xenograft model. In kind it is in vivo, BALB/c nude mice. Particulars: p.o., bid, 14 days, HGC-27 xenograft.
Another data set has as its system HCC-1806. The data set can be described thus: MTT cytotoxicity / anti-proliferation assay. In kind it is cell-based. Particulars: Homo sapiens, HCC1806, 72 h, HCC-1806, MTT, read-out: IC50, cancer cell viability.
Data set [1] can be described thus: Solubility in aqueous solution (pure water, normal saline). In kind it is physicochemical.
A further data set relates to MCF-7. The data set can be described thus: MTT cytotoxicity / anti-proliferation assay. In kind it is cell-based. To be noted: Homo sapiens, MCF7, 72 h, MCF-7, MTT, read-out: IC50, cancer cell viability.
The next data set relates to HCT-116. The data set can be described thus: MTT cytotoxicity / anti-proliferation assay. Format: cell-based. To be noted: Homo sapiens, HCT-116, 72 h, HCT-116, MTT, read-out: IC50, cancer cell viability.
The subject of a further data set is MDA-MB-468. The experiment in a line: MTT cytotoxicity / anti-proliferation assay. In kind it is cell-based. Particulars: Homo sapiens, MDA-MB-468, 72 h, MDA-MB-468, MTT, read-out: IC50, cancer cell viability.
The next data set relates to AGS. Also noted: method as in Feng et al., 2022. Particulars: previous work, ref Feng et al., 2022; cited from earlier work.
A further data set has as its system HGC-27 cells. The experiment in a line: MTT cytotoxicity / anti-proliferation assay. In kind it is cell-based, human. To be noted: Homo sapiens, HGC-27, 72 h, HGC-27, MTT, read-out: IC50, cancer cell viability. The protocol: Undifferentiated human gastric cancer cell line (HGC-27) was purchased from the China Center for Type Collection (CCTCC, China) and used with 10% Foetal Bovine Serum (FBS, Gemini, Bio-Product, CA, United States), 1% penicillin streptomycin (PS) and 89% 1,640 medium ([…]) for culture. All cells were incubated at 37°C in a constant temperature incubator containing 95% air and 5% CO2.
To evaluate the cytotoxicity of F8 and related organic salts on HGC-27 cells, MTT analysis was performed. HGC-27 cells were digested with trypsin, then cells were spread into 96-well plates at a density of 3,000 cells/well and incubated for 12–16 h. After 12 h, the medium in 96-well plates was replaced with compounds containing 1, 0.5, 0.25, 0.125, 0.062, 0.0312 μM for another 72 h. Three days later, 20 μL MTT solution was added and incubated at 37°C for 4 h. Then 150 μL DMSO solution was added to each well after the fluid was removed, and the absorbance was detected by microplate reader. The compound dissolved in DMSO was added to the cell medium so that the final concentration of DMSO was less than 0.4%.
Infinite proliferation is one of the most prominent features of cancer cells, therefore, we evaluated the anti-proliferation activity of compounds F8 and related organic salts against human gastric carcinoma HGC-27 via MTT assay.

Another data set in a line: Pharmacokinetic study. Particulars: SD rats; for Cmax: read-out: Cmax. In kind it is in vivo, SD rats. Here is the method:
7–8-week Male SD rats weighing 180–220 g were allowed for this experiment. The rats were fasted 12 h except for water. The solution was administered to rats by intravenous injection of 10% ethanol +10% solutol as solvent and intragastric injection of 5% castor oil +5% solutol as solvent. The dose concentration was 8 mg/mL for intravenous injection and 10 mg/mL for gavage.
Twelve male SD rats were divided into 4 groups with 3 rats in each group. Group 1 was F8-intravenous injection group, the dose was 20 mg/kg; Group 2 was F8- intragastric administration group, the dose was 100 mg/kg; Group 3 was F8·2HCl-intragastric administration group, the dose was 100 mg/kg. Blank blood was collected before administration, and blood was collected at predetermined time points after administration:
Intravenous injection group: before administration, 2 min, 5 min, 15 min, 30 min, 1 h, 2 h, 4 h, 8 h, 12 h, 24 h. Intragastric administration group: Before administration, 5 min, 15 min, 30 min, 1 h, 2 h, 4 h, 6 h, 8 h, 12 h, 24 h. About 0.5 mL of blood was collected and placed in an EDTA-K2 tube at […]. The plasma was centrifuged and stored at −80°C. The samples were detected by liquid-mass spectrometry analysis system. The chromatographic column used was ODS-C18 (4.6 × 50 mm, 3 µm). The chromatographic conditions were as follows: Mobile phase A is aqueous phase, […] (including 0.1% formic acid); Mobile phase B is organic, 95% acetonitrile (containing 0.1% formic acid). Flow rate of 0.4 mL/min, column temperature: room temperature, according to the drug plasma concentration data, calculated pharmacokinetic parameters using DAS 2.0 software.
After oral administration, drugs need to go through four stages, namely, absorption, distribution, metabolism and excretion. However, the changes in solubility of drugs after salting only affect the absorption stage. Since absorption is accompanied by a dissolution process, the water solubility and dissolution rate of drugs are the main factors that determine their absorption, and then affect their oral bioavailability ([Elder et al., 2013]). Under the stimulation of cell activity and increased solubility, pharmacokinetic experiments were carried out to understand the drug exposure and provide a basis for further druggability of compound F8. In this study, compound F8 and F8·2HCl were administered in two different ways: tail vein injection (20 mg/kg) and gavage (100 mg/kg), and pharmacokinetic parameters were measured in Sprague-Dawley (SD) rats (Figures 3, 4).

Another data set deals with HCC-1937. The data set can be described thus: MTT cytotoxicity / anti-proliferation assay. In kind it is cell-based. To be noted: Homo sapiens, HCC1937, 72 h, HCC-1937, MTT, read-out: IC50, cancer cell viability.
In a further data set the test system is MDA-MB-231. The data set can be described thus: MTT cytotoxicity / anti-proliferation assay. Format: cell-based. To be noted: Homo sapiens, MDA-MB-231, 72 h, MDA-MB-231, MTT, read-out: IC50, cancer cell viability.
The next data set has as its system SK-Hep-1. The data set can be described thus: MTT cytotoxicity / anti-proliferation assay. To be noted: SK-Hep-1, MTT, 72 h; read-out: IC50, cancer cell viability. Format: cell-based.
The subject of the next data set is MGC-803. Also noted: method as in Feng et al., 2022. Particulars: MGC-803, previous work; ref Feng et al., 2022; cited from earlier work.
The next data set concerns GES-1. More on the design: method as in Feng et al., 2022. Particulars: GES-1 normal cells, previous work; ref Feng et al., 2022; cited from earlier work.
Another data set has as its system HuH7. The data set can be described thus: MTT cytotoxicity / anti-proliferation assay. Particulars: 72 h, read-out: IC50, cancer cell viability. In kind it is cell-based.
The mark [2] stands for this setting: male, Sprague-Dawley, rat, plasma, iv, 20 mg/kg.
Setting [3] is: male, Sprague-Dawley, rat, plasma, oral, 100 mg/kg, 100 mg/kg, route ip (methods: intragastric).

Method for HGC-27 xenograft: 4-week-old male BALB/c nude mice weighing 18g–22 g were injected with 100 μL HGC-27 cells (2 × 10^6 cells) to establish an undifferentiated gastric cancer model.
(A) Tumor volumes plotted as mean ± SEM. (B) Mice weight curve during treatment plotted as mean ± SD. (C,D) Tumor weight and size on the final day.

As to `N#CC1(c2ccc(NC(=O)c3cccnc3NCc3ccncc3)cc2)CCCC1` [Apatinib, apatinib, reference compound], in the data set with HGC-27 xenograft (37.5 mg/kg), the “tumor growth inhibition (TGI)” value turned out to be 50.0%.
What is called IC50 is the concentration that inhibits the measured activity by half. As usually defined, the Tmax is the time from dosing to the highest level. A word on the AUC(0-inf): it is total exposure, with the tail of the curve extrapolated. For orientation: half-life means the time needed for the level to fall by half in the phase considered. In general, Cmax refers to the highest concentration seen after dosing. For orientation: bioavailability means the share of a dose that reaches the circulation, judged against a reference dose that is usually intravenous. Usually AUC(0-t) stands for exposure summed from dosing to a finite time, without extrapolation to infinity. Read a low AUC(0-t) as less exposure. With `O=C(NCc1ccc(NC(=O)c2cc(F)ccc2N2CCCC2)cc1)OCc1cccnc1` [F8], the IC50 was 21.1 ± 0.74 µM in the data set with HCC-1806; 43.5 ± 0.36 µM in the data set on MCF-7; 4.89 ± 0.35 µM with HCT-116; 1450 ± 120 nM with MDA-MB-468; 23.3 µM in the data set on AGS; 260 ± 30 nM with HGC-27 cells. Also, the IC50 with HCC-1937 is 47.05 ± 0.07 µM; in the data set with MDA-MB-231 it was 53.8 ± 0.59 µM; in the data set on SK-Hep-1, 1650 ± 150 nM; with MGC-803, 10.7 µM; with GES-1, above 100 µM; in the data set on HuH7 it was 2350 ± 290 nM. The “solubility in normal saline” value in data set [1] (normal saline, compared with pure water) is “not much different from pure water”. For the same compound, the “Solubility in aqueous solution” value in data set [1] (pure water) is reported as “less than 1 mg/mL”. Moreover, the Tmax in “Pharmacokinetic study” (100 mg/kg, route ip (methods: intragastric), 100 mg/kg) came to 11.4 min; in the data set “Pharmacokinetic study” (male, Sprague-Dawley, rat, plasma, iv, 20 mg/kg, 20 mg/kg, iv, read-out: Tmax), 1.8 min. Further, the peak plasma concentration in “Pharmacokinetic study” (oral administration 100 mg/kg, 100 mg/kg) stood at 0.4 µg/mL. Moreover, the AUC(0-inf) amounted to 6990 ng·h/mL in the data set “Pharmacokinetic study” (setting [2]) and 1130 ng·h/mL in the data set “Pharmacokinetic study” (setting [3]). Also, the results for the half-life in “Pharmacokinetic study” (setting [2]) and in “Pharmacokinetic study” (setting [3]) were 185 min and 160 min, respectively. Besides, the peak concentration (Cmax) in the data set “Pharmacokinetic study” (male, Sprague-Dawley, rat, plasma, iv, 20 mg/kg, 20 mg/kg, iv) is 12100 ng/mL; in the data set “Pharmacokinetic study” (setting [3]) it was 400 ng/mL. For the same compound, the bioavailability in the data set “Pharmacokinetic study” (male, Sprague-Dawley, rat, plasma, oral, 100 mg/kg, oral 100 mg/kg vs iv 20 mg/kg, read-out: bioavailability) is 3.23%. Further, in “Pharmacokinetic study” (male, Sprague-Dawley, rat, plasma, po, 100 mg/kg, area under the concentration-time curve (AUC0-t), oral administration 100 mg/kg, heading: area under the concentration-time curve), the AUC(0-t) is around 1.13 µg·h/mL. For the same compound, the “tumor growth inhibition (TGI)” value in the data set with HGC-27 xenograft (75 mg/kg) came out at 52.8%.
